Here are results for four molecules from US20030187075A1, “Sponge antitumor compounds” (priority 2000, published 2003).

Format in all cases: cell-based
One assay relates to P388 Leukaemia. Kind of assay: Antitumoral activity, cytotoxicity against P388. Conditions: Mus musculus; P388 Leukaemia cells.
The next assay deals with A549 (Human Lung). The assay can be described thus: Antitumoral activity, cytotoxicity against A549. Conditions: A549 (Human Lung) cells.
The next assay relates to HT29 (Human Colon). Kind of assay: Antitumoral activity, cytotoxicity against HT29. As to conditions: HT-29; HT29 (Human Colon) cells.
The subject of a further assay is MEL28 (Melanoma). Kind of assay: Antitumoral activity, cytotoxicity against MEL28. As to conditions: Homo sapiens, SK-MEL-28; MEL28 (Melanoma) cells.

Values after ≈ are worked out from the molar mass of the structure shown.

`C=C(CC[C@@H]1C(=C)CC[C@H](Cl)C1(C)C)C(Cl)CN=C(Cl)Cl` (stereo partly shown) [Compound 1]: the IC50 (usually the concentration that gives 50% inhibition) in the assay on P388 Leukaemia is 1 µg/mL (≈ 2.69 µM); in the assay with A549 (Human Lung), 0.1 µg/mL (≈ 0.269 µM); with HT29 (Human Colon), 0.1 µg/mL (≈ 0.269 µM); with MEL28 (Melanoma) it was 0.1 µg/mL (≈ 0.269 µM).
Regarding `CC1(C)[C@@H](Cl)[C@@H](O)C[C@]2(C)C/C(=C/C=O)CC[C@@H]12` [Compound 2], the half-maximal inhibitory concentration (IC50) in the assay on P388 Leukaemia, in the assay on A549 (Human Lung), with HT29 (Human Colon) and in the assay with MEL28 (Melanoma) was 1 µg/mL (≈ 3.69 µM) in each case.
Take `CC1(C)[C@@H](Cl)[C@@H](O)C[C@]2(C)C/C(=C\C=O)CC[C@@H]12` [Compound 3]: the IC50 in the assay with P388 Leukaemia, with A549 (Human Lung), with HT29 (Human Colon) and in the assay on MEL28 (Melanoma) was 1 µg/mL (≈ 3.69 µM) each time.
Take `CC1(C)[C@@H](Cl)CC[C@]2(C)C=C(C=CN=C(Cl)Cl)CC[C@@H]12` [Compound 4]: the IC50 in the assay on P388 Leukaemia, in the assay with A549 (Human Lung), in the assay with HT29 (Human Colon) and in the assay on MEL28 (Melanoma) was 1 µg/mL (≈ 2.99 µM) in each case.
